From BindingDB's records for doi:10.1007/s002109900044 (Universitat Wurzburg, 1999) come the findings set out here.

One assay deals with T1, Adenosine receptor A1 (Homo sapiens, UniProt P30542).
T1 sequence (P30542 whole entry): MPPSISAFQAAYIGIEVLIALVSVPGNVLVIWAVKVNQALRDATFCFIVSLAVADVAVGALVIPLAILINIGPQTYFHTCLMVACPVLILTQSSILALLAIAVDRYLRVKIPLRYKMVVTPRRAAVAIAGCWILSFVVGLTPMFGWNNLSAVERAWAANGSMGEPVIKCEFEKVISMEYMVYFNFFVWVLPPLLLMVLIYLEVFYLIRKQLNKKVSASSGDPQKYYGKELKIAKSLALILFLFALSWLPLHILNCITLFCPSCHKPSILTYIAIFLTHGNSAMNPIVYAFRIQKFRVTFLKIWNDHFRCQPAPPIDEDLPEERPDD

A further assay deals with Adenosine receptor A2a (Homo sapiens, UniProt P29274).
Chain of Adenosine receptor A2a (P29274 whole entry): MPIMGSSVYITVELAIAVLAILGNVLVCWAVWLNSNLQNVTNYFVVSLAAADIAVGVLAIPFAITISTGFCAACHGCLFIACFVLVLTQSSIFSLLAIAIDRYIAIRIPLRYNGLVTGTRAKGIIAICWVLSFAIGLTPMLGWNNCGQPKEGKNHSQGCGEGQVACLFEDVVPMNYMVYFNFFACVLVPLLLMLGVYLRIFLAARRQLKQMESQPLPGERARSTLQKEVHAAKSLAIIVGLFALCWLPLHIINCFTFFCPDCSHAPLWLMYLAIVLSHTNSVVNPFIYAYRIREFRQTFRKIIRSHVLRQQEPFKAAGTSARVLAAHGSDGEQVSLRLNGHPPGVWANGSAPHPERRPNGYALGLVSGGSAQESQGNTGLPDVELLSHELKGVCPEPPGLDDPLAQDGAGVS
A further assay concerns the target T2, Adenosine receptor A3 (Homo sapiens, UniProt P0DMS8).
T2 sequence (P0DMS8 whole entry): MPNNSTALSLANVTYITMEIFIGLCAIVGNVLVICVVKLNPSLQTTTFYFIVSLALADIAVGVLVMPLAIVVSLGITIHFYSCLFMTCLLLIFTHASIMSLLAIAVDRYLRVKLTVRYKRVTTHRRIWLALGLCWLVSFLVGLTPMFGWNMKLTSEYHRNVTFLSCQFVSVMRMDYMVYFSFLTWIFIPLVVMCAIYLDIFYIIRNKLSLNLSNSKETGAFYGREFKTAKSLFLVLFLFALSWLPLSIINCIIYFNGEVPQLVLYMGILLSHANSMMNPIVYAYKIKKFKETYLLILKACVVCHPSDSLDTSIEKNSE

Structures are written as SMILES.

Broadly, the Ki is a dissociation constant, usually derived from enzyme kinetics or from competition with a known ligand. Low readings indicate a stronger hold on the target, high ones a looser hold on the target. Consider `CCNC(=O)C1OC(n2cnc3c(N)nc(C#Cc4ccco4)nc32)C(O)C1O` (stereo not given) [5-{6-amino-2-[2-(furan-2-yl)ethynyl]-9H-purin-9-yl}-N-ethyl-3,4-dihydroxyoxolane-2-carboxamide], for which the Ki at Adenosine receptor A1 was found to be 0.14 µM; on Adenosine receptor A2a, 0.51 µM; on Adenosine receptor A3, 0.012 µM.

As to `CCNC(=O)C1OC(n2cnc3c(N)nc(C#C[C@H](O)c4ccccc4)nc32)C(O)C1O` (stereo partly drawn) [6S, (S)-PHPNECA], the Ki stood at 0.0021 µM on Adenosine receptor A1, 0.002 µM on Adenosine receptor A2a and 0.00075 µM on Adenosine receptor A3.

Consider `CCNC(=O)C1OC(n2cnc3c(N)nc(C#CCCCc4ccccc4)nc32)C(O)C1O` (stereo not given) [5-[6-Amino-2-(5-phenyl-pent-1-ynyl)-purin-9-yl]-3,4-dihydroxy-tetrahydro-furan-2-carboxylic acid ethylamide], for which the Ki at Adenosine receptor A1 came to 0.18 µM; at Adenosine receptor A3 it was 0.027 µM.

As to `CCNC(=O)C1OC(n2cnc3c(N)nc(C#CCOc4ccccc4)nc32)C(O)C1O` (stereo not given) [2-substituted NECA derivatives, 8], the Ki on Adenosine receptor A1 is 0.008 µM; at Adenosine receptor A2a it was 0.18 µM; on Adenosine receptor A3, 0.014 µM.

Take `CCNC(=O)C1OC(n2cnc3c(N)nc(C#Cc4ccccc4)nc32)C(O)C1O` (stereo not given) [5-(6-Amino-2-phenylethynyl-purin-9-yl)-3,4-dihydroxy-tetrahydro-furan-2-carboxylic acid ethylamide]: the Ki on Adenosine receptor A1 was found to be 0.56 µM; on Adenosine receptor A2a, 0.62 µM; at Adenosine receptor A3 it was 0.0062 µM.

On to `CCNC(=O)C1OC(n2cnc3c(N)nc(C#Cc4ccc(CCC(=O)O)cc4)nc32)C(O)C1O` (stereo not given) [3-{4-[6-Amino-9-(5-ethylcarbamoyl-3,4-dihydroxy-tetrahydro-furan-2-yl)-9H-purin-2-ylethynyl]-phenyl}-propionic acid], for which the results for the Ki on Adenosine receptor A1, at Adenosine receptor A2a and on Adenosine receptor A3 were 1 µM, 2.2 µM and 0.042 µM, respectively.

Take `CCNC(=O)C1OC(n2cnc3c(N)nc(C#CC(O)c4ccccc4)nc32)C(O)C1O` (stereo not given) [R,S-PHPNECA]: the Ki on Adenosine receptor A1 amounted to 0.0027 µM; on Adenosine receptor A2a, 0.0031 µM; on Adenosine receptor A3, 0.00042 µM.

For the molecule `CCNC(=O)C1OC(n2cnc3c(N)nc(C#CC(C)(O)c4ccccc4)nc32)C(O)C1O` (stereo not given) [5-[6-Amino-2-(3-hydroxy-3-phenyl-but-1-ynyl)-purin-9-yl]-3,4-dihydroxy-tetrahydro-furan-2-carboxylic acid ethylamide], the Ki at Adenosine receptor A1 is 0.0094 µM; on Adenosine receptor A2a, 0.056 µM; at Adenosine receptor A3, 0.0024 µM.

Take `CCNC(=O)C1OC(n2cnc3c(N)nc(C#CC4=CCCCC4)nc32)C(O)C1O` (stereo not given) [5-(6-Amino-2-cyclohex-1-enylethynyl-purin-9-yl)-3,4-dihydroxy-tetrahydro-furan-2-carboxylic acid ethylamide]: the Ki at Adenosine receptor A1 amounted to 0.087 µM; at Adenosine receptor A2a, 0.1 µM; on Adenosine receptor A3, 0.028 µM.

Regarding `CCNC(=O)C1OC(n2cnc3c(N)nc(C#CC(C)O)nc32)C(O)C1O` (stereo not given) [5-[6-Amino-2-(3-hydroxy-but-1-ynyl)-purin-9-yl]-3,4-dihydroxy-tetrahydro-furan-2-carboxylic acid ethylamide], the Ki at Adenosine receptor A1 was 0.0033 µM; on Adenosine receptor A2a it was 0.014 µM; at Adenosine receptor A3 it was 0.0015 µM.

As to `CCNC(=O)C1OC(n2cnc3c(N)nc(C#CCCCC#N)nc32)C(O)C1O` (stereo not given) [5-[6-Amino-2-(5-cyano-pent-1-ynyl)-purin-9-yl]-3,4-dihydroxy-tetrahydro-furan-2-carboxylic acid ethylamide], the Ki at Adenosine receptor A1 was determined as 0.038 µM; on Adenosine receptor A2a, 0.025 µM; at Adenosine receptor A3 it was 0.0047 µM.

With `CCNC(=O)C1OC(n2cnc3c(N)nc(C#Cc4nccs4)nc32)C(O)C1O` (stereo not given) [5-(6-Amino-2-thiazol-2-ylethynyl-purin-9-yl)-3,4-dihydroxy-tetrahydro-furan-2-carboxylic acid ethylamide], the values for the Ki on Adenosine receptor A1 and on Adenosine receptor A3 were 0.012 µM and 0.0037 µM, respectively.

Consider `CCNC(=O)C1OC(n2cnc3c(N)nc(C#CCC(C)O)nc32)C(O)C1O` (stereo not given) [5-[6-Amino-2-(4-hydroxy-pent-1-ynyl)-purin-9-yl]-3,4-dihydroxy-tetrahydro-furan-2-carboxylic acid ethylamide], for which the values for the Ki at Adenosine receptor A1, at Adenosine receptor A2a and at Adenosine receptor A3 were 0.04 µM, 0.014 µM and 0.0041 µM, respectively.

Take `CCNC(=O)C1OC(n2cnc3c(N)nc(C#Cc4ccc(C(N)=O)cc4)nc32)C(O)C1O` (stereo not given) [5-{6-amino-2-[2-(4-carbamoylphenyl)ethynyl]-9H-purin-9-yl}-N-ethyl-3,4-dihydroxyoxolane-2-carboxamide]: the Ki at Adenosine receptor A1 is 0.2 µM; at Adenosine receptor A2a it was 0.47 µM; at Adenosine receptor A3, 0.0093 µM.

On to `CCNC(=O)[C@H]1O[C@@H](n2cnc3c(N)nc(C#C[C@@H](O)c4ccccc4)nc32)[C@H](O)[C@@H]1O` [6R, (R)-PHPNECA], for which the Ki is 0.0019 µM at Adenosine receptor A1, 0.039 µM at Adenosine receptor A2a and 0.0055 µM at Adenosine receptor A3.

As for `CCCCC#Cc1nc(N)c2ncn([C@@H]3O[C@H](C(=O)NCC)[C@H](O)C3O)c2n1` (stereo partly drawn) [(2S,3R,5R)-5-[6-amino-2-(hex-1-yn-1-yl)-9H-purin-9-yl]-N-ethyl-3,4-dihydroxyoxolane-2-carboxamide], the figures for the Ki at Adenosine receptor A2a and on Adenosine receptor A3 were 0.0064 µM and 0.0024 µM, respectively.
